Test systems include SF-268; KM-20L2; K562; SK-MEL-28; NCI-H460; MOLT-4; SK-MEL-2; A549; M19-MEL; OVCAR-5; NCI-H23; EKVX; SF-539; SNB-78; HCT-15; HCT-116; SK-OV-3.
Experiment in all cases: NCI tumour cell line growth inhibition, 48 h

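Tested at 5 concentrations; 48 h exposure; 96-well plates; endpoints linearly interpolated, else capped at highest concentration. GI50 = concentration required for 50% inhibition of growth.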 The source made the active and inactive calls. No stated cut-off is given here; in the data, active = GI50 up to about 1.1 µM and inactive = higher.

As for `Cc1nc(N)nc(N)c1CCCc1ccccc1`, the GI50 was 5.4 µM (inactive) with SF-268; 7.31 µM (inactive) in the experiment with KM-20L2; 0.552 µM (active) in the experiment with K562; 15.2 µM (inactive) in the experiment on SK-MEL-28; 3.47 µM (inactive) in the experiment with NCI-H460; 4.07 µM (inactive) with MOLT-4. The GI50 with SK-MEL-2 is 7.98 µM (inactive); in the experiment with A549 it was 1.49 µM (inactive); with M19-MEL it was 9.95 µM (inactive); in the experiment on OVCAR-5, 15.9 µM (inactive); in the experiment with NCI-H23, 10.3 µM (inactive); in the experiment with EKVX, 15.2 µM (inactive). Further, the GI50 in the experiment with SF-539 was 13.9 µM (inactive); in the experiment on SNB-78, 32.1 µM (inactive); in the experiment on HCT-15, 2.87 µM; with HCT-116, 2.7 µM (inactive); with SK-OV-3, 57.5 µM (inactive).

Regarding `C#CC1(O)CC(c2ccccc2)N(C)C(c2ccccc2)C1` (stereo unspecified), the GI50 with SF-268 was > 100 µM (inactive); in the experiment with KM-20L2, > 100 µM (inactive); in the experiment on K562, 78.9 µM (inactive); with SK-MEL-28, > 100 µM (inactive); in the experiment with NCI-H460, > 100 µM (inactive); in the experiment on MOLT-4, > 100 µM (inactive). Further, the GI50 in the experiment on SK-MEL-2, with A549, with M19-MEL, in the experiment with OVCAR-5, with NCI-H23 and with EKVX was > 100 µM (inactive) throughout. Also, the GI50 in the experiment on SF-539 is > 100 µM (inactive); in the experiment on SNB-78, > 100 µM (inactive); in the experiment on HCT-15 it was over 100 µM; with HCT-116, 18.4 µM (inactive); with SK-OV-3, > 100 µM (inactive).

`O=C(CCN1CCN(c2cccc(Cl)c2)CC1)N1CCc2c([nH]c3ccccc23)C1c1cccnc1` (stereo unspecified): the GI50 in the experiment on KM-20L2 was 5.52 µM (inactive); in the experiment with K562, 2.78 µM (inactive); in the experiment with SK-MEL-28, 11.9 µM (inactive); in the experiment with NCI-H460 it was 4.05 µM (inactive); in the experiment on MOLT-4, 2.95 µM (inactive); with SK-MEL-2, 6.12 µM (inactive). Besides, the GI50 with A549 is 6.28 µM (inactive); in the experiment on M19-MEL, 13.3 µM (inactive); with OVCAR-5 it was 4.72 µM (inactive); with NCI-H23, 7.89 µM (inactive); in the experiment on EKVX, 8.73 µM (inactive); in the experiment with SF-539, 13.7 µM (inactive). Moreover, the GI50 in the experiment on SNB-78 is 3.72 µM (inactive); in the experiment on HCT-15, 3.4 µM; with HCT-116, 7.13 µM (inactive); with SK-OV-3, 6.59 µM (inactive).

For `Nc1c(Cl)ncnc1NCCCNc1ncnc(Cl)c1N`, the GI50 in the experiment with SF-268, in the experiment on KM-20L2, with K562, in the experiment on SK-MEL-28, with NCI-H460 and in the experiment on MOLT-4 was > 100 µM (inactive) throughout. In addition, the GI50 in the experiment on SK-MEL-2 is > 100 µM (inactive); with A549, > 100 µM (inactive); with M19-MEL, > 100 µM (inactive); in the experiment on OVCAR-5, > 100 µM (inactive); in the experiment with NCI-H23, 53.8 µM (inactive); in the experiment on EKVX, > 100 µM (inactive). The GI50 in the experiment with SF-539 is > 100 µM (inactive); in the experiment with SNB-78, > 100 µM (inactive); in the experiment on HCT-15, over 100 µM; in the experiment on HCT-116, > 100 µM (inactive); in the experiment on SK-OV-3, > 100 µM (inactive).

Take `N#CCCN(CCC#N)C(=O)c1cccc(C(=O)N(CCC#N)CCC#N)c1`: the GI50 in the experiment with SF-268 is > 100 µM (inactive); in the experiment with KM-20L2, > 42.8 µM (inactive); with K562, > 100 µM (inactive); with SK-MEL-28 it was 7.45 µM (inactive); with NCI-H460, > 47.5 µM (inactive); in the experiment on MOLT-4 it was > 100 µM (inactive). The GI50 with SK-MEL-2 was > 100 µM (inactive); in the experiment with A549, > 69.7 µM (inactive); in the experiment on M19-MEL, > 100 µM (inactive); in the experiment on OVCAR-5, > 100 µM (inactive); in the experiment with NCI-H23 it was > 41.9 µM (inactive); in the experiment on EKVX, > 46.2 µM (inactive). Further, the GI50 in the experiment on SF-539 was > 40.9 µM (inactive); with SNB-78 it was > 100 µM (inactive); in the experiment with HCT-15 it was over 100 µM; in the experiment with HCT-116, > 55.6 µM (inactive); with SK-OV-3 it was > 100 µM (inactive).

As to `O=C1NC(=O)C2C(=O)NC(=O)C1C2Cc1ccco1` (stereo unspecified), the GI50 in the experiment with SF-268, in the experiment on KM-20L2, in the experiment with K562, in the experiment on SK-MEL-28, in the experiment with NCI-H460 and in the experiment on MOLT-4 was > 100 µM (inactive) in each case. Further, the GI50 with SK-MEL-2, in the experiment with A549, with M19-MEL, in the experiment on OVCAR-5, with NCI-H23 and in the experiment on EKVX was > 100 µM (inactive) in each case. For the same molecule, the GI50 in the experiment with SF-539 was > 100 µM (inactive); in the experiment on SNB-78, > 100 µM (inactive); in the experiment on HCT-15, over 100 µM; in the experiment with SK-OV-3 it was > 100 µM (inactive).

Consider `COC(=O)CCC(=O)Nc1ccc(Cl)cc1C`, for which the GI50 with KM-20L2 was > 48.4 µM (inactive); in the experiment with K562 it was 20.8 µM (inactive); in the experiment with SK-MEL-28, > 100 µM (inactive); in the experiment with NCI-H460, > 100 µM (inactive); in the experiment on MOLT-4, 1.8 µM (inactive); in the experiment on SK-MEL-2 it was > 47.8 µM (inactive). In addition, the GI50 with A549 was > 22 µM (inactive); with M19-MEL, > 100 µM (inactive); in the experiment with OVCAR-5, > 100 µM (inactive); in the experiment with NCI-H23, > 71 µM (inactive); with EKVX, > 55.2 µM (inactive); in the experiment on SF-539 it was > 100 µM (inactive). Further, the GI50 was 98.4 µM (inactive) with SNB-78, over 100 µM in the experiment with HCT-15, > 100 µM (inactive) in the experiment with HCT-116 and > 100 µM (inactive) with SK-OV-3.

`Cc1ccc(S(=O)(=O)N/N=c2\c(C)c(C3=NS(=O)(=O)c4cc(S(N)(=O)=O)c(Cl)cc4N3)oc3c(Cl)cc(Cl)cc23)cc1`: the GI50 was > 100 µM (inactive) in the experiment with SF-268; > 100 µM (inactive) in the experiment on KM-20L2; 61.1 µM (inactive) in the experiment on K562; > 100 µM (inactive) in the experiment on SK-MEL-28; 60.7 µM (inactive) in the experiment on NCI-H460; > 100 µM (inactive) in the experiment on MOLT-4. Further, the GI50 with SK-MEL-2, with A549, in the experiment on M19-MEL, in the experiment with OVCAR-5, in the experiment with NCI-H23 and with EKVX was > 100 µM (inactive) each time. The GI50 in the experiment on SF-539 is > 100 µM (inactive); with SNB-78, > 100 µM (inactive); in the experiment on HCT-15, 39.4 µM; in the experiment with HCT-116, 65.5 µM (inactive); with SK-OV-3, > 100 µM (inactive).

For `Cc1ccc(S(=O)(=O)OC2CSSCC2OS(=O)(=O)c2ccc(C)cc2)cc1` (stereo unspecified), the GI50 in the experiment on SF-268 is 14.7 µM (inactive); in the experiment on KM-20L2, 14 µM (inactive); with K562, 14.9 µM (inactive); in the experiment with SK-MEL-28, 16.6 µM (inactive); in the experiment on NCI-H460, 17.7 µM (inactive); in the experiment on MOLT-4 it was 2.59 µM (inactive). For the same molecule, the GI50 in the experiment on SK-MEL-2 is 15.7 µM (inactive); in the experiment on A549, 18 µM (inactive); in the experiment with M19-MEL, 13.4 µM (inactive); with OVCAR-5, 23.4 µM (inactive); with NCI-H23 it was 17.9 µM (inactive); in the experiment on EKVX it was 29.8 µM (inactive). In addition, the GI50 in the experiment with SF-539 was 10.5 µM (inactive); in the experiment with SNB-78, 20 µM (inactive); with HCT-15, 10.2 µM; in the experiment with HCT-116, 13.3 µM (inactive); in the experiment with SK-OV-3, 20.5 µM (inactive).

Consider `c1ccc2c(c1)[nH]c1c2nc2ncccn21`, for which the GI50 in the experiment with SF-268, in the experiment with KM-20L2, with K562, in the experiment on SK-MEL-28, in the experiment with NCI-H460 and in the experiment with MOLT-4 was > 100 µM (inactive) each time. For the same molecule, the GI50 in the experiment on SK-MEL-2, in the experiment with A549, in the experiment with M19-MEL, with OVCAR-5, in the experiment on NCI-H23 and in the experiment on EKVX was > 100 µM (inactive) each time. The GI50 in the experiment on SF-539, in the experiment on SNB-78, in the experiment on HCT-116 and with SK-OV-3 was > 100 µM (inactive) each time.

As to `COC(=O)C1[C@H](c2ccc3c(c2)OCO3)OC(=O)[C@]1(C(=O)OC)C(=O)c1ccc(OC)c(OC)c1` (stereo partly specified), the GI50 in the experiment on KM-20L2 was 56 µM (inactive); in the experiment on K562, 36 µM (inactive); in the experiment on NCI-H460, 38.7 µM (inactive); with MOLT-4, 20.5 µM (inactive); in the experiment with SK-MEL-2, 23.4 µM (inactive); in the experiment with M19-MEL, 51.6 µM (inactive). Also, the GI50 in the experiment on OVCAR-5 is 56.8 µM (inactive); with NCI-H23, 29.3 µM (inactive); in the experiment with EKVX, > 100 µM (inactive); in the experiment with SF-539 it was > 10 µM (inactive); in the experiment on SNB-78, 56.8 µM (inactive); in the experiment with HCT-15, 33.7 µM. In addition, in the experiment on SK-OV-3, the GI50 was > 100 µM (inactive).

For `COc1cc(CNc2ccc(C(C)C)cc2)cc(OC)c1OC`, the GI50 is 54.7 µM (inactive) with SF-268; 16.8 µM (inactive) in the experiment on KM-20L2; 8.57 µM (inactive) in the experiment with K562; 27 µM (inactive) in the experiment on SK-MEL-28; 13.4 µM (inactive) in the experiment on NCI-H460; 22.4 µM (inactive) in the experiment on MOLT-4. Further, the GI50 is 13 µM (inactive) with SK-MEL-2; 13 µM (inactive) in the experiment with A549; 17.1 µM (inactive) in the experiment with M19-MEL; 24.8 µM (inactive) with OVCAR-5; 20.1 µM (inactive) in the experiment with NCI-H23; 51.8 µM (inactive) with EKVX. Moreover, the GI50 in the experiment with SF-539 is 20.3 µM (inactive); in the experiment on SNB-78, 35.1 µM (inactive); in the experiment on HCT-15 it was 16.9 µM; in the experiment with HCT-116 it was 11.5 µM (inactive); in the experiment on SK-OV-3 it was 17.6 µM (inactive).

These data come from ChEMBL document CHEMBL1201862, “PubChem BioAssay data set” (2004).
